For the test, the system named is Mycobacterium tuberculosis H37Rv growth inhibition, no glycerol. Description: Confirmatory growth inhibition assay, Mycobacterium tuberculosis H37Rv, absence of glycerol (AID 449764).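 For all read-outs here: growth read after 7 days of incubation.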 The conditions noted are these: for IC90: measured here: IC90 growth inhibition.

pIC50: −log10 of the molar value.

Results on 52 compounds are retold here after PubChem BioAssay AID449764 (Southern Research Specialized Biocontainment Screening …, 2010).

Regarding `CCCc1cc(-c2nc(N)ncc2-c2ccc3c(c2)OCCCO3)c(O)cc1OC`, the pIC50 is 4.27 and the IC90 was 81 µM. The like results for `O=C(NNc1nc2ccccc2s1)c1ccccc1F` were, in that order, 4.40 and 59.2 µM. The like results for `O=c1c(Cl)nc2cc(Cl)ccc2n1CCNc1ncc(C(F)(F)F)cc1Cl` were, in that order, 5.53 and 3.37 µM. For `N#Cc1c(SCC(N)=O)nsc1SCc1ccccc1Cl`, the negative-log IC50 (pIC50) is 4.34 and the IC90 is > 100 µM. The like results for `CCCCS(=O)(=O)/C=C\C=C/S(=O)(=O)CCCC` were, in that order, 5.65 and 2.92 µM. The like results for `NC1=NC[C@H](Cc2ccc(O)cc2)N1CCc1cccc2ccccc12` were, in that order, 4.39 and 45.6 µM. The matching figures for `CN(C)C(=O)c1ccc(NC(=O)COC(=O)c2cc3c(s2)CCCCC3)cc1`: 4.04 and > 100 µM.

Regarding `CC(C)(C)Nc1nc(NC(C)(C)C)nc(-n2ccnc2)n1`, the pIC50 was 4.22 and the concentration for an effect of 90% (IC90) is 98.5 µM. `Cc1ccnc(N2CCC(C(=O)Nc3cccc(C(F)(F)F)c3)CC2)n1`: the negative-log IC50 (pIC50) is 4.33 and the IC90 was > 50 µM. The matching figures for `O=c1c(C=Nc2ccc(Oc3ccccc3)cc2)c[nH]n1-c1cccc(Cl)n1`: 4.63 and > 100 µM. The matching figures for `CCCSc1nnc(Sc2nnnn2-c2ccccc2)s1`: 4.65 and 38.8 µM. The like results for `CN(c1ccccc1)c1ccc(/C=C/[N+](=O)[O-])cc1` were, in that order, 4.82 and 28 µM. Regarding `CCOC(=O)c1c(NC(=O)C(NCCN(C)C)c2ccccc2)sc2c1CCCC2` (configuration not stated), the negative logarithm of the IC50 (pIC50) was 5.03 and the IC90 is 12.1 µM. Take `Cc1nnc(SCc2ccccc2Cl)n(N)c1=O`: the IC90 was > 100 µM. Take `Cc1nc([N+](=O)[O-])c(Br)n1CC(=O)c1ccc2ccccc2c1`: the pIC50 is 4.95 and the 90% effect concentration (IC90) came out at 12.7 µM. The matching figures for `N#CC(C(=O)Nc1ccccc1)=C1Nc2ccccc2N1`: 4.41 and > 100 µM. The like results for `CC(C)(C)NC(=O)[C@@H]1C[C@@H]2CCCC[C@@H]2CN1C[C@@H](O)[C@H](Cc1ccccc1)NC(=O)[C@H](CC(N)=O)NC(=O)c1ccc2ccccc2n1` were, in that order, 4.48 and 52.8 µM. The like results for `CCOC(=O)c1ccc(Oc2nc(NC(C)(C)C)nc(N(C)C)n2)cc1` were, in that order, 4.24 and > 100 µM. Consider `COc1ccc(-c2nc(NC(=O)Cn3ccc(C(F)(F)F)n3)sc2C)cc1`, for which the negative logarithm of the IC50 (pIC50) was 4.35 and the 90% effect concentration (IC90) worked out at 50.4 µM.

On to `CC1(C)C2CCC1(C)C(OCC[N+](C)(C)CC(=O)OC1CCCCC1)C2` (configuration not stated), for which the negative logarithm of the IC50 (pIC50) is 4.92 and the concentration for an effect of 90% (IC90) came out at 13.1 µM.

As to `CCOC(=O)c1sc(NC(=O)CN2C(=O)NC3(CC(C)CC(C)(C)C3)C2=O)cc1C` (configuration not stated), the pIC50 is 4.47 and the IC90 turned out to be 48.4 µM. The matching figures for `Oc1ccc(CN2CCc3ccccc3C2)c2cccnc12`: 4.14 and > 100 µM.

In the case of `COc1ccc([C@H]2CC(=O)C=C(c3ccc4c5c(cccc35)CC4)C2)cc1`, the IC90 was > 100 µM.

Regarding `Cc1cc(C)c2cc(C(=O)Nc3ccc(C)c(F)c3)[nH]c2c1`, the pIC50 is 5.88 and the IC90 was found to be 1.91 µM. Consider `CC1(C)Cc2c(C#N)c(N3CCN(C(=O)c4ccccc4)CC3)nc(Cc3ccccc3)c2CO1`, for which the negative-log IC50 (pIC50) was 4.50 and the IC90 is 46.9 µM. The matching figures for `CCN(CC)c1nc(NN)nc(Nc2ccc(C)c(Cl)c2)n1`: 5.23 and 6.79 µM. The like results for `CCCOC(=O)c1ccc(-c2ccc(C=O)o2)cc1` were, in that order, 4.68 and > 100 µM. The matching figures for `O=C(c1cc(COc2ccc(F)cc2F)on1)N1CCCC(c2ccccc2)C1` (configuration not stated): 4.27 and > 100 µM.

With `c1ccc(CSc2ccc(-c3ccccn3)nn2)cc1`, the negative logarithm of the IC50 (pIC50) is 4.05 and the IC90 stood at 94.2 µM.

In the case of `CN1CCN(c2cc(-c3ccccc3)nc3cc(-c4ccc(F)cc4)nn23)CC1`, the pIC50 was 4.79 and the IC90 was found to be 42.2 µM.

With `O=C(Cc1ccc(Nc2nc3ccc(Br)cc3[nH]2)cc1)NCCc1cccs1`, the negative-log IC50 (pIC50) is 4.53 and the IC90 worked out at 37 µM.

In the case of `COc1ccc(-c2cn3cc([N+](=O)[O-])ccc3n2)cc1OC`, the pIC50 was 4.33 and the concentration for an effect of 90% (IC90) was > 50 µM. The like results for `CCOC(=O)C1CCCN(c2ncnc3c2cnn3-c2ccc(OC)cc2)C1` (configuration not stated) were, in that order, 5.24 and 10.3 µM. `CSC(=S)N/N=C/c1ccccc1`: the pIC50 was 4.40 and the IC90 came to 54.1 µM. The matching figures for `CCOC(=O)Oc1c(OC)cc(C(=O)O[C@@H]2C[C@@H]3CN4CCc5c([nH]c6cc(OC)ccc56)[C@H]4C[C@@H]3[C@H](C(=O)OC)[C@H]2OC)cc1OC`: 4.58 and 39.1 µM. The matching figures for `C=C1c2c(Cl)ccc(O)c2C(O)=C2C(=O)[C@]3(O)C(O)=C(C(N)=O)C(=O)[C@@H](N(C)C)[C@@H]3[C@@H](O)C12` (some centres not stated): 5.34 and 7.01 µM. As to `Cc1cccc2c1N(CCCOc1ccc(C(C)(C)C)cc1)C(=O)C2=O`, the pIC50 is 4.76 and the concentration for an effect of 90% (IC90) stood at 20.1 µM.

As to `Oc1ccc(F)c2cccnc12`, the negative-log IC50 (pIC50) is 5.23 and the IC90 turned out to be 6.56 µM.

As to `Cn1c(NC(=S)Nc2ccccc2)nc2ccccc21`, the pIC50 is 5.24 and the IC90 was determined as 6.33 µM.

Regarding `Cc1ccc(C2=NNC3(CCOC(C)(C)C3)S2)cc1` (configuration not stated), the pIC50 was 4.57 and the IC90 is 41.3 µM.

Take `CCCOc1ccc2oc(=O)c3c(c2c1)CCCN3C(=O)CN1CCN(c2ncccn2)CC1`: the pIC50 is 4.14 and the concentration for an effect of 90% (IC90) is > 100 µM. Turning to `Cn1nc(C(F)(F)F)c2cc(NC(=O)OCC(C)(C)C)sc21`, the pIC50 was 4.64 and the IC90 amounted to 43.1 µM. `COc1ccc(-n2cc(CNCCc3cscn3)c(-c3ccccc3Cl)n2)cc1`: the negative logarithm of the IC50 (pIC50) is 4.56 and the concentration for an effect of 90% (IC90) amounted to 35.9 µM. The like results for `N=c1oc2cc(O)ccc2cc1C(=O)Nc1ccc(Br)cc1` were, in that order, 5.76 and 3.96 µM.

As for `CCOc1ccc(-c2cc(C)[n+](CCc3ccc(OC)c(OC)c3)c(-c3ccc(OCC)cc3)c2)cc1`, the pIC50 is 5.78 and the IC90 is 2.52 µM. The matching figures for `CCCCCCCCn1sccc1=O`: 5.69 and 2.83 µM. The matching figures for `CC1=NN(C(N)=S)C(=O)C1N=Nc1ccc(C)c(Br)c1` (configuration not stated): 4.43 and > 100 µM. As for `CC(C)(C)C(=O)/C(=C\c1cccc([N+](=O)[O-])c1)n1cncn1`, the negative logarithm of the IC50 (pIC50) was 5.52 and the IC90 worked out at 3.41 µM. With `C=C(C)C1Cc2c(C)nn(-c3nc(C)cc(C)n3)c2C1` (configuration not stated), the pIC50 was 5.06 and the IC90 is 22.1 µM. With `O=C(NCC1CCN(c2ccc(S(=O)(=O)N3CCOCC3)cc2)CC1)c1ccc(Cl)cc1`, the negative-log IC50 (pIC50) is 4.39 and the 90% effect concentration (IC90) was determined as 57 µM. The like results for `CC1=CC(=O)C(C(C)C)=C/C1=N/OS(=O)(=O)c1ccccc1` were, in that order, 5.37 and 7.65 µM.

As to `CCC(C)(C)c1ccc(OCCCC[n+]2ccc(C)cc2)c(C(C)(C)CC)c1`, the negative-log IC50 (pIC50) was 4.92 and the IC90 stood at 13.8 µM.
